# Results reported in PubChem BioAssay (NCI).
#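 Interpolation was linear, between the two tested concentrations surrounding the appropriate level; five concentrations were tested over 48 hours in 96-well plates. Abbreviation: GI50, concentration required for 50% inhibition of growth. Definition used: TGI = concentration required for complete inhibition of growth.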
# What was measured:
# Assay in all cases: NCI anticancer screen, dose series, 48 h
# [1] = test system: NCI-H226 lung
# [2] = test system: KM12 colon
# [3] = test system: M14 melanoma
# [4] = test system: SF-268 CNS
# [5] = test system: SN12C renal
# [6] = test system: K-562 leukemia
# [7] = test system: HOP-92 NSCLC
# [8] = test system: T-47D breast
# [9] = test system: SNB-19 CNS
# [10] = test system: SW-620 colon
# [11] = test system: UO-31 renal
# [12] = test system: MALME-3M melanoma
# [13] = test system: A498 renal
# [14] = test system: SK-MEL-5 melanoma
# [15] = test system: OVCAR-8 ovarian
# [16] = test system: SR leukemia
# [17] = test system: SK-MEL-28 melanoma
# [18] = test system: OVCAR-4 ovarian
# [19] = test system: RPMI-8226 leukemia
# [20] = test system: A549 NSCLC
# [21] = test system: LOX IMVI melanoma
# [22] = test system: MDA-MB-435
# [23] = test system: HCC-2998 colon
# [24] = test system: NCI-H23 lung
# [25] = test system: BT-549 breast
# [26] = test system: UACC-257 melanoma
# [27] = test system: IGROV1 ovarian
# [28] = test system: SF-539 CNS
# [29] = test system: HCT-15 colon
# [30] = test system: NCI/ADR-RES ovarian
# [31] = test system: NCI-H460 lung
# [32] = test system: NCI-H522 lung
# [33] = test system: COLO 205 colon
# [34] = test system: SF-295 CNS
# [35] = test system: U251 CNS
# [36] = test system: TK-10 renal
# [37] = test system: SK-OV-3 ovarian
# [38] = test system: MDA-MB-231 breast
# [39] = test system: EKVX NSCLC
# [40] = test system: OVCAR-3 ovarian
# [41] = test system: UACC-62 melanoma
# [42] = test system: MOLT-4 leukemia
# [43] = test system: HCT-116 colon
# [44] = test system: 786-0 renal
# [45] = test system: PC-3 prostate
# [46] = test system: CCRF-CEM leukemia
# [47] = test system: DU-145 prostate
# [48] = test system: SK-MEL-2 melanoma
# [49] = test system: HOP-62 NSCLC
# [50] = test system: HT29 colon
# [51] = test system: SNB-75 CNS
# [52] = test system: CAKI-1 renal
# [53] = test system: OVCAR-5 ovarian
# [54] = test system: ACHN renal
# [55] = test system: HL-60(TB) leukemia
# [56] = test system: MCF7 breast
# [57] = test system: HS 578T breast
# [58] = test system: RXF 393 renal
structure (smiles),measurement,setting,value
Nc1n[nH]c2cc(F)c([C@@H]3Nc4c(F)cc5[nH]ncc5c4[C@H]4C5CCC(C5)[C@@H]34)cc12 (stereo partly specified),GI50,[1],0.141 µM
same,TGI,[1],1.41 µM
same,GI50,[2],0.129 µM
same,TGI,[2],0.853 µM
same,GI50,[3],0.107 µM
same,TGI,[3],5.83 µM
same,GI50,[4],0.306 µM
same,TGI,[4],4.49 µM
same,GI50,[5],0.187 µM
same,TGI,[5],9.46 µM
same,GI50,[6],0.11 µM
same,TGI,[6],12.7 µM
same,GI50,[7],0.36 µM
same,TGI,[7],4.1 µM
same,GI50,[8],5.89 µM
same,TGI,[8],26.6 µM
same,GI50,[9],0.134 µM
same,TGI,[9],14.9 µM
same,GI50,[10],0.141 µM
same,TGI,[10],6.72 µM
same,GI50,[11],0.209 µM
same,TGI,[11],10.8 µM
same,GI50,[12],0.948 µM
same,TGI,[12],14.3 µM
same,GI50,[13],0.063 µM
same,TGI,[13],0.212 µM
same,GI50,[14],0.114 µM
same,TGI,[14],0.538 µM
same,GI50,[15],0.136 µM
same,TGI,[15],15.2 µM
same,GI50,[16],0.115 µM
same,TGI,[16],11.1 µM
same,GI50,[17],3.75 µM
same,TGI,[17],13.4 µM
same,GI50,[18],0.566 µM
same,TGI,[18],33.3 µM
same,GI50,[19],0.145 µM
same,TGI,[19],5.22 µM
same,GI50,[20],0.134 µM
same,TGI,[20],13.9 µM
same,GI50,[21],0.144 µM
same,TGI,[21],4.41 µM
same,GI50,[22],0.0727 µM
same,TGI,[22],0.195 µM
same,GI50,[23],0.118 µM
same,TGI,[23],4.5 µM
same,GI50,[24],0.158 µM
same,TGI,[24],5.76 µM
same,GI50,[25],0.103 µM
same,TGI,[25],1.37 µM
same,GI50,[26],5.16 µM
same,TGI,[26],23.3 µM
same,GI50,[27],0.13 µM
same,TGI,[27],5.04 µM
same,GI50,[28],0.0792 µM
same,TGI,[28],0.23 µM
same,GI50,[29],0.111 µM
same,TGI,[29],3.69 µM
same,GI50,[30],0.14 µM
same,TGI,[30],5.67 µM
same,GI50,[31],0.117 µM
same,TGI,[31],3.57 µM
same,GI50,[32],0.0932 µM
same,TGI,[32],2.22 µM
same,GI50,[33],0.124 µM
same,TGI,[33],1.03 µM
same,GI50,[34],0.0971 µM
same,TGI,[34],3.82 µM
same,GI50,[35],0.127 µM
same,TGI,[35],5.7 µM
same,GI50,[36],2.27 µM
same,TGI,[36],27.2 µM
same,GI50,[37],0.275 µM
same,TGI,[37],20.7 µM
same,GI50,[38],0.135 µM
same,TGI,[38],5.05 µM
same,GI50,[39],0.167 µM
same,TGI,[39],23.4 µM
same,GI50,[40],0.105 µM
same,TGI,[40],3.73 µM
same,GI50,[41],0.162 µM
same,TGI,[41],6.77 µM
same,GI50,[42],0.145 µM
same,TGI,[42],14.1 µM
same,GI50,[43],0.118 µM
same,TGI,[43],1.56 µM
same,GI50,[44],0.211 µM
same,TGI,[44],7.85 µM
same,GI50,[45],0.149 µM
same,TGI,[45],8.04 µM
same,GI50,[46],0.127 µM
same,TGI,[46],28.7 µM
same,GI50,[47],0.157 µM
same,TGI,[47],7.97 µM
same,GI50,[48],0.817 µM
same,TGI,[48],9.37 µM
same,GI50,[49],0.195 µM
same,TGI,[49],6.46 µM
same,GI50,[50],0.119 µM
same,TGI,[50],5.39 µM
same,GI50,[51],0.0894 µM
same,TGI,[51],0.635 µM
same,GI50,[52],0.137 µM
same,TGI,[52],3.38 µM
same,GI50,[53],0.175 µM
same,TGI,[53],8.52 µM
same,GI50,[54],0.188 µM
same,TGI,[54],11.1 µM
same,GI50,[55],0.1 µM
same,TGI,[55],0.317 µM
same,GI50,[56],0.118 µM
same,TGI,[56],6.32 µM
same,GI50,[57],0.117 µM
same,TGI,[57],2.95 µM
CCC1C[N+]2=C(c3cc(OC)c(OC)cc3CC2)c2c1cc1n2CCc2cc(OC)c(OC)cc2-1 (stereo unspecified),GI50,[1],7.49 µM
same,TGI,[1],21.2 µM
same,GI50,[2],1.5 µM
same,TGI,[2],10.9 µM
same,GI50,[3],3.66 µM
same,TGI,[3],14.6 µM
same,GI50,[4],3.49 µM
same,TGI,[4],31.8 µM
same,GI50,[5],1.93 µM
same,TGI,[5],11.8 µM
same,GI50,[6],1.95 µM
same,TGI,[6],20.8 µM
same,GI50,[7],1.78 µM
same,TGI,[7],6.08 µM
same,GI50,[58],3.46 µM
same,TGI,[58],15.5 µM
same,GI50,[8],0.746 µM
same,TGI,[8],5.51 µM
same,GI50,[9],2.75 µM
same,TGI,[9],15.7 µM
same,GI50,[10],4.25 µM
same,TGI,[10],16.8 µM
same,GI50,[11],18.4 µM
same,TGI,[11],46.8 µM
same,GI50,[13],7.36 µM
same,TGI,[13],33 µM
same,GI50,[14],1.26 µM
same,TGI,[14],2.61 µM
same,GI50,[15],2.58 µM
same,TGI,[15],82.1 µM
same,GI50,[16],3.1 µM
same,TGI,[16],> 100 µM
same,GI50,[17],1.93 µM
same,TGI,[17],10.1 µM
same,GI50,[18],1.14 µM
same,TGI,[18],8.87 µM
same,GI50,[19],0.576 µM
same,TGI,[19],15 µM
same,GI50,[20],11.8 µM
same,TGI,[20],> 100 µM
same,GI50,[21],3.72 µM
same,TGI,[21],23.2 µM
same,GI50,[22],1.62 µM
same,TGI,[22],6.09 µM
same,GI50,[23],2.55 µM
same,TGI,[23],12.9 µM
same,GI50,[24],2.77 µM
same,TGI,[24],18.7 µM
same,GI50,[25],2.69 µM
same,TGI,[25],13.5 µM
same,GI50,[27],5.62 µM
same,TGI,[27],53.6 µM
same,GI50,[28],3.34 µM
same,TGI,[28],14.9 µM
same,GI50,[29],14 µM
same,TGI,[29],34.7 µM
same,GI50,[30],64.3 µM
same,TGI,[30],> 100 µM
same,GI50,[31],2.82 µM
same,TGI,[31],12.1 µM
same,GI50,[32],1.81 µM
same,TGI,[32],13.9 µM
same,GI50,[33],1.23 µM
same,TGI,[33],3.71 µM
same,GI50,[34],6.37 µM
same,TGI,[34],27.7 µM
same,GI50,[35],2.25 µM
same,TGI,[35],14.5 µM
same,GI50,[36],6.84 µM
same,TGI,[36],21.1 µM
same,GI50,[37],5.01 µM
same,TGI,[37],37.5 µM
same,GI50,[38],2.27 µM
same,TGI,[38],8.44 µM
same,GI50,[39],6.62 µM
same,TGI,[39],> 100 µM
same,GI50,[40],1 µM
same,TGI,[40],10.8 µM
same,GI50,[41],1.93 µM
same,TGI,[41],6.03 µM
same,GI50,[42],3.97 µM
same,TGI,[42],23.6 µM
same,GI50,[43],2.89 µM
same,TGI,[43],13.1 µM
same,GI50,[44],11 µM
same,TGI,[44],30.1 µM
same,GI50,[45],2.5 µM
same,TGI,[45],33.1 µM
same,GI50,[46],3.68 µM
same,TGI,[46],42.4 µM
same,GI50,[47],5.37 µM
same,TGI,[47],36.8 µM
same,GI50,[48],2.67 µM
same,TGI,[48],7.31 µM
same,GI50,[49],3.51 µM
same,TGI,[49],26.5 µM
same,GI50,[50],3.23 µM
same,TGI,[50],20.3 µM
same,GI50,[51],1.77 µM
same,TGI,[51],7.48 µM
same,GI50,[52],20.6 µM
same,TGI,[52],65.7 µM
same,GI50,[53],12.1 µM
same,TGI,[53],> 100 µM
same,GI50,[54],14.7 µM
same,TGI,[54],30.1 µM
same,GI50,[55],2.47 µM
same,TGI,[55],10.1 µM
same,GI50,[56],1.25 µM
same,TGI,[56],13.3 µM
same,GI50,[57],4.1 µM
same,TGI,[57],> 100 µM
